Experimental data published in patent publication US20120095022A1, “DERIVATIVES OF 10-AMINO-1,2,3,4-TETRAHYDROPYRIDO[2,1-A]ISOINDOL-6(10BH)-ONES, METHOD FOR PREPARATION THEREOF AND THERAPEUTIC USES THEREOF” (UNIVERSITE D'ORLEANS, priority 2009, published 2012).
pIC50: −log10 of the molar value.

Key:
MDA-MB 231 (breast) = assay: Cytotoxicity on human cells, automated nuclei counting: MDA-MB 231; type: cell-based; conditions: MDA-MB 231 cells, exposed 24 h to 48 h, 0.1 to 25 μM
Protocol: (§1) Cytotoxicity: This method is based on an automated imaging analysis. 4.10^3 cells were cultivated on 96-well plates and left for 24 hours so as to bind, to spread and proliferate.
(§2) All the cell lines were cultivated in a DMEM or RPMI (Invitrogen) medium. All these media were completed with antibiotics (penicillin-streptomycin) (Lonza) and 10% by volume of fetal calf serum (Invitrogen). The cells were cultivated at 37° C. with 5% of CO2. The treatments with the molecules to be tested were carried out with increasing concentrations. The control experiments were also carried out by using suitable dilutions of DMSO (maximum 1% DMSO).

CDK5/D25 = target: T1, CDK5/D25 (Homo sapiens, UniProt Q00535); assay: CDK5 kinase inhibition (33P-ATP, histone H1); type: biochemical; conditions: buffer C, 30° C., 15 μM ATP, read-out: IC50 μM Kinases CDK5
T1 construct: made in house
T1 sequence (Q00535 whole entry): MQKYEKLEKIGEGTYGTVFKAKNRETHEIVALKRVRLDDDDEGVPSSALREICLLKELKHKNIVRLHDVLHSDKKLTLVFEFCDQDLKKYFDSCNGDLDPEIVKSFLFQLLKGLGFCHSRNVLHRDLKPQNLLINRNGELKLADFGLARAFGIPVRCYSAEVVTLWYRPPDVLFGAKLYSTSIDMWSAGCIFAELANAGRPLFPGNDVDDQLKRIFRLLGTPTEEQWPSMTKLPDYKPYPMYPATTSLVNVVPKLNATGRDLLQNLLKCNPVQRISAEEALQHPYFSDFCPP
T1 sequence (Q15078 99-307 partner limits assumed): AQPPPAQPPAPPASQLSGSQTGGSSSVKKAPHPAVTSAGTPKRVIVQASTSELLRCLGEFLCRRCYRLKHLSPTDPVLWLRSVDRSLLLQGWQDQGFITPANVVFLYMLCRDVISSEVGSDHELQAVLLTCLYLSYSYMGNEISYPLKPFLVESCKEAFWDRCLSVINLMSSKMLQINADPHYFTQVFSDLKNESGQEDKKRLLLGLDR
Protocol: The protein kinase inhibition activities of the compounds of the invention are tested according to the following general procedure:
Buffer C: 60 mM β-glycerophosphate, 15 mM p-nitrophenyl-phosphate, 25 mM Mops (pH 7.2), 5 mM EGTA, 15 mM mgCl2, 1 mM DTT, 1 mM sodium vanadate and 1 mM phenylphosphate.
The controls were made with suitable dilutions of DMSO.
ATP (3.000 Ci/mmol.; 10 mCi/mL) in a final volume of 30 μL. After 30 mins of incubation at 30° C., 25 μL of supernatant aliquots were deposited on phosphocellulose Whatman P81 paper pieces of 2.5×3 cm, and after 20 seconds, the filters were washed five times (for at least 5 minutes each time) in a solution of 10 mL of phosphoric acid/1 litre of water. The wet filters were counted in the presence of 1 mL of scintillation fluid ACS (Amersham).

fibroblast = assay: Cytotoxicity on human cells, automated nuclei counting: fibroblast; type: cell-based; conditions: exposed 24 h to 48 h, 0.1 to 25 μM
Protocol: as §1, §2

GSK-3αβ = assay: GSK-3 kinase inhibition (GS-1 substrate); conditions: read-out: IC50 μM Kinases GSK3, buffer A, 30° C., 15 μM ATP
NCI (lung) = assay: Cytotoxicity on human cells, automated nuclei counting: NCI; type: cell-based; conditions: exposed 24 h to 48 h, 0.1 to 25 μM
Protocol: as §1, §2

DYRK1A = DYRK1A (Homo sapiens, UniProt Q13627); assay: DYRK1A kinase inhibition (Woodtide substrate)
PC3 (prostate) = assay: Cytotoxicity on human cells, automated nuclei counting: PC3; type: cell-based; conditions: PC-3, exposed 24 h to 48 h, 0.1 to 25 μM
Protocol: as §1, §2

HCT 116 (colon) = assay: Cytotoxicity on human cells, automated nuclei counting: HCT 116; type: cell-based; conditions: HCT 116 cells, exposed 24 h to 48 h, 0.1 to 25 μM
Protocol: as §1, §2

Caco (colon) = assay: Cytotoxicity on human cells, automated nuclei counting: Caco; type: cell-based; conditions: exposed 24 h to 48 h, 0.1 to 25 μM
Protocol: as §1, §2

Huh7 (liver) = assay: Cytotoxicity on human cells, automated nuclei counting: Huh7; type: cell-based; conditions: Huh-7, exposed 24 h to 48 h, 0.1 to 25 μM
Protocol: as §1, §2

Compound	IC50 (MDA-MB 231 (breast)) [µM]	IC50 (CDK5/D25) [µM]	IC50 (fibroblast) [µM]	IC50 (GSK-3αβ) [µM]	IC50 (NCI (lung)) [µM]	pIC50 (DYRK1A)	IC50 (PC3 (prostate)) [µM]	IC50 (HCT 116 (colon)) [µM]	IC50 (Caco (colon)) [µM]	IC50 (Huh7 (liver)) [µM]	melting point [°C]
COC1CCN2C(=O)c3cccc(NC(=O)Nc4cccc(C)n4)c3C2C1 (stereo not drawn) [Compound 56, 1-(2-Methoxy-6-oxo-1,2,3,4,6,10b-hexahydropyrido[2,1-a]isoindol-10-yl)-3-(6-methylpyri-din-2-yl)urea]	7	4.3	7	0.32	10	< 5.00	6	3	6	3	
Cn1ccc(NC(=O)Nc2cccc3c2C2CCCCN2C3=O)n1 (stereo not drawn) [Compound 41, 1-(1-Methyl-1H-pyrazol-3-yl)-3-(6-oxo-1,2,3,4,6,10b-hexahydro-pyrido[2,1-a]isoindol-10-yl)-urea]		0.51		0.31		< 5.00					233
O=C1c2cccc(NC(=S)Nc3cnccn3)c2C2CC3(CCN12)SCCS3 (stereo not drawn) [Compound 69, 1-(6′-Oxo-3′,4′,6′,10b′-tetrahydro-1′H-spiro[[1,3]dithiolane-2,2′-pyrido[2,1-a]isoindole]-10′-yl)-3-(pyrazin-2-yl)thiourea]	10	> 10	25	> 10	> 25	< 5.00	> 25	15	4	> 25	128
COC1CCN2C(=O)c3cccc(NC(=O)Nc4cc(C)ccn4)c3C2C1 (stereo not drawn) [Compound 58, 1-(2-methoxy-6-oxo-1,2,3,4,6,10b-hexahydropyrido[2,1-a]isoindol-10-yl)-3-(4-methylpyridin-2-yl)urea]	0.3	0.32	0.5	0.032	0.4	< 5.00	0.4	0.03	0.5	0.1	
COc1cc(NC(=O)Nc2cccc3c2C2CC(O)CCN2C3=O)nc2ccccc12 (stereo not drawn) [Compound 109, 1-(2-Hydroxy-6-oxo-1,2,3,4,6,10b-hexahydropyrido[2,1-a]isoindol-10-yl)-3-(4-methoxyquinolin-2-yl)urea]	6	4.9	5	0.035	1	< 5.00	5	1	15	1	> 260
CC(C)(C)OC(=O)n1ccc(NC(=O)Nc2cccc3c2C2CCCCN2C3=O)n1 (stereo not drawn) [Compound 118]				0.4		< 5.00					136
Cc1cnc(NC(=O)Nc2cccc3c2C2CC4(CCN2C3=O)SCCS4)cn1 (stereo not drawn) [Compound 51]	0.4	0.22	8	0.05	0.8	< 5.00	0.4	0.2	0.5	0.3	> 260
O=C(Nc1cccc2c1C1CCCCN1C2=O)Nc1nc(Cl)c(Cl)c(Cl)c1Cl (stereo not drawn) [Compound 33, 1-(6-oxo-1,2,3,4,6,10b-hexahydropyrido[2,1-a]isoindol-10-yl)-3-(perchloro-pyridin-2-yl)urea]	0.5		0.5	4.3	0.8	< 4.00	1	0.5	1.5	0.25	246
COC1CCN2C(=O)c3cccc(NC(=O)Nc4ncccc4C)c3C2C1 (stereo not drawn) [Compound 57, 1-(2-Methoxy-6-oxo-1,2,3,4,6,10b-hexahydropyrido[2,1-a]isoindol-10-yl)-3-(3-methylpyridin-2-yl)urea]	2.2	1.1	3		4	< 5.00	1.2	1	2	1.2	
Cn1ccc(NC(=O)Nc2cccc3c2C2CC4(CCN2C3=O)SCCS4)n1 (stereo not drawn) [Compound 40, 1-(6′-Oxo-3′,4′,6′,10b′-tetrahydro-1′H-spiro[[1,3]dithiolane-2,2′-pyrido[2,1-a]isoindole]-10′-yl)-3-(1-Methyl-1H-pyrazol-3-yl)urea]		≥ 10		1.9		< 5.00					135
COC1CCN2C(=O)c3cccc(NC(=O)Nc4ccn(C)n4)c3C2C1 (stereo not drawn) [Compound 60, 1-(2-methoxy-6-oxo-1,2,3,4,6,10b-hexahydropyrido[2,1-a]isoindol-10-yl)-3-(1-methyl-1H-pyrazol-3-yl)urea]	10	2.3	15		2	< 5.00	7	4	15	2	
O=C(Nc1cc[nH]n1)Nc1cccc2c1C1CCCCN1C2=O (stereo not drawn) [Compound 119, 1-(6-Oxo-1,2,3,4,6,10b-hexahydro-pyrido[2,1-a]isoindol-10-yl)-3-(1H-pyrazol-3-yl)-urea]				0.47		< 5.00					185
COC1CCN2C(=O)c3cccc(NC(=O)Nc4ccccn4)c3C2C1 (stereo not drawn) [Compound 53, 1-(2-Methoxy-6-oxo-1,2,3,4,6,10b-hexahydropyrido[2,1-a]isoindol-10-yl)-3-(pyridin-2-yl)urea]	2	0.55	3	0.081	4	< 5.00	2	1	2.5	0.7	
O=C(Nc1ccncn1)Nc1cccc2c1C1CCCCN1C2=O (stereo not drawn) [Compound 32, 1-(6-Oxo-1,2,3,4,6,10b-hexahydropyrido[2,1-a]isoindol-10-yl)-3-(pyrimidin-4-yl)urea]		1.5		0.36		4.15					218
O=C1c2cccc(NC(=S)Nc3ccc(Br)cn3)c2C2CCCCN12 (stereo not drawn) [Compound 66, 1-(5-Bromopyridin-2-yl)-3-(6-oxo-1,2,3,4,6,10b-hexahydropyrido[2,1-a]isoindol-10-yl)thiourea]	2	8.7	4	2.1	25	< 4.00	> 25	3	2	> 25	
COc1cc(NC(=O)Nc2cccc3c2C2CC4(CCN2C3=O)SCCS4)nc2ccccc12 (stereo not drawn) [Compound 49]	20	> 10	25	4	10	< 5.00	15	10	15	5	
O=C1CCN2C(=O)c3cccc(NC(=O)Nc4cc(O)c5ccccc5n4)c3C2C1 (stereo not drawn) [Compound 103, 1-(2,6-Dioxo-1,2,3,4,6,10b-hexahydropyrido[2,1-a]isoindol-10-yl)-3-(4-hydroxyquinolin-2-yl)urea]		> 10		1.3		≤ 5.00					> 260
O=C(Nc1cc(O)c2ccccc2n1)Nc1cccc2c1C1CC(O)CCN1C2=O (stereo not drawn) [Compound 110, 1-(2-Hydroxy-6-oxo-1,2,3,4,6,10b-hexahydropyrido[2,1-a]isoindol-10-yl)-3-(4-hydroxyquinolin-2-yl)urea]		> 10		2.5		≤ 5.00					> 260
O=C1c2cccc(NC(=S)Nc3ccccn3)c2C2CCCCN12 (stereo not drawn) [Compound 62, 1-(6-Oxo-1,2,3,4,6,10b-hexahydropyrido[2,1-a]isoindol-10-yl)-3-(pyridin-2-yl)thiourea]	25		> 25	2.3	> 25	4.33	20	8	20	> 25	195
